Here are results for nine compounds from patent US20130197009A1, “ANTAGONIST FOR MUTANT ANDROGEN RECEPTOR” (ASTELLAS PHARMA INC., priority 2010, published 2013).

Residue numbers refer to the chain shown, from its start.

Assay [1] deals with T1, wild type AR (Wild) (Homo sapiens, UniProt P10275).
T1 sequence (P10275 1-920): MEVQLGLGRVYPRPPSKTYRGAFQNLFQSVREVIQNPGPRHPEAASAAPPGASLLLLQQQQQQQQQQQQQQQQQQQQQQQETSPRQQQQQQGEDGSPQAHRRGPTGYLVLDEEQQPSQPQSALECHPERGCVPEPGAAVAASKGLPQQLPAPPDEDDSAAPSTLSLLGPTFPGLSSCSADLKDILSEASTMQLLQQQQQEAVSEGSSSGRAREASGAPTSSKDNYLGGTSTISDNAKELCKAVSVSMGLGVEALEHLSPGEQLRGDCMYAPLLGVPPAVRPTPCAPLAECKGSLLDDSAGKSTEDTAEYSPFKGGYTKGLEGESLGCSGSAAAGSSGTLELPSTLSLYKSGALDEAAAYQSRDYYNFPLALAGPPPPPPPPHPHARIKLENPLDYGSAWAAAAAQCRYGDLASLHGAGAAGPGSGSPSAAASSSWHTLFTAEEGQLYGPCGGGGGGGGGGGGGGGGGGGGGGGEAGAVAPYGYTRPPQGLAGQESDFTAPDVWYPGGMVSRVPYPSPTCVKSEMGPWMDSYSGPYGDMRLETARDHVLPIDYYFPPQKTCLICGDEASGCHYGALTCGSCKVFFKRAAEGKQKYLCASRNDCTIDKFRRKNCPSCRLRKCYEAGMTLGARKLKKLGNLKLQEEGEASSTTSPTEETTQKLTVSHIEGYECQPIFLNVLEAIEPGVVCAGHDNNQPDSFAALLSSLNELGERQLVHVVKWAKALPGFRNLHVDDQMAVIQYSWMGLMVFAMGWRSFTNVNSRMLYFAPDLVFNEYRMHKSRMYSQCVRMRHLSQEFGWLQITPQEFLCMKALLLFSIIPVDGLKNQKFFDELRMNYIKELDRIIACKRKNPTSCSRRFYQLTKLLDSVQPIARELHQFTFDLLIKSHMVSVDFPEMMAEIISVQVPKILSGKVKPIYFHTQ
Briefly: Inhibitory action against transcriptional activation of AR (luciferase reporter, CHO-K1 cells, DHT 0.3 nM). In general terms: In a reporter assay the amount or activity of a reporter protein is the signal.

The target of assay [2] is T2, human T877A mutant AR (Homo sapiens, UniProt P10275, T878A).
T2 construct: expressed in transfected cells; host or cells: CHO-K1
T2 sequence (P10275 1-920 T878A): T1 sequence (P10275 1-920) with T878A
Briefly: Inhibitory action against transcriptional activation of mutant AR (luciferase reporter, CHO-K1 cells, DHT 0.3 nM). In kind it is cell-based. The conditions noted are these: CHO-K1 cells stably expressing T877A mutant AR, with DHT 0.3 nM, >1000 nM means no inhibitory action observed, read-out: IC50, inhibition of transcriptional activation, T877A. As to the method: Subsequently, the cells were incubated overnight again at 37° C. and then treated with a luciferase assay system.
An IC50 value was calculated by Sigmoid-Emax model nonlinear regression analysis.
The inhibitory action of the respective test compounds against the receptor was calculated as an IC50 value, and the values are described in the following table. In addition, “-” means that the test was not performed.

A word on the IC50: it is the concentration at which inhibition is half-maximal. As to `COc1cc(NC(=O)N2C[C@H](C)N(c3ccc(C#N)c(Cl)c3)C[C@H]2C)cc(C)n1` [Ex 18, (2R,5S)-4-(3-chloro-4-cyanophenyl)-N-(2-methoxy-6-methylpyridin-4-yl)-2,5-dimethylpiperazine-1-carboxamide], the results for the IC50 in assay [1] and in assay [2] were 0.01 µM and 0.015 µM, respectively.

As for `C[C@@H]1CN(c2ccc(C#N)c(Cl)c2)[C@@H](C)CN1C(=O)Nc1cnc2ccccc2n1` [Ref 1-3, (2R,5S)-4-(3-chloro-4-cyanophenyl)-2,5-dimethyl-N-(quinoxalin-2-yl)piperazine-1-carboxamide, reference compound], the figures for the IC50 in assay [1] and in assay [2] were 0.051 µM and 0.68 µM, respectively.

For the compound `CC(C)Oc1cc(N2C[C@@H](C)N(C(=O)Nc3cnc(C4CC4)nc3)C[C@@H]2C)ccc1C#N` [Ref 1-1, reference compound], the IC50 in assay [1] turned out to be 0.14 µM; in assay [2], 0.35 µM.

In assay [1], `C[C@@H]1CN(c2ccc(C#N)c(Cl)c2)[C@@H](C)CN1C(=O)Nc1cnc(N2CCCCC2)nc1` [Ex 8, (2R,5S)-4-(3-chloro-4-cyanophenyl)-2,5-dimethyl-N-[2-(piperidin-1-yl)pyrimidin-5-yl]piperazine-1-carboxamide] showed an IC50 of 0.017 µM.

As to `COc1cc(N2C[C@@H](C)N(C(=O)Nc3nc(C)cc(O)n3)C[C@@H]2C)ccc1C#N` [Ref 1-2, reference compound], the results for the IC50 in assay [1] and in assay [2] were 0.058 µM and 0.089 µM, respectively.

In the case of `COc1ncc(NC(=O)N2C[C@H](C)N(c3ccc(C#N)c(Br)c3)C[C@H]2C)cn1` [Ex 11, (2R,5S)-4-(3-bromo-4-cyanophenyl)-N-(2-methoxypyrimidin-5-yl)-2,5-dimethylpiperazine-1-carboxamide], the IC50 in assay [1] is 0.026 µM; in assay [2], 0.023 µM.

As for `COc1cc(NC(=O)N2C[C@H](C)N(c3ccc(C#N)c(Br)c3)C[C@H]2C)cc(C)n1` [Ex 19, (2R,5S)-4-(3-bromo-4-cyanophenyl)-N-(2-methoxy-6-methylpyridin-4-yl)-2,5-dimethylpiperazine-1-carboxamide], the IC50 in assay [1] was 0.011 µM; in assay [2] it was 0.019 µM.

For `Cc1cc(NC(=O)N2C[C@H](C)N(c3ccc(C#N)c(Cl)c3)C[C@H]2C)cc(Cl)n1` [Ex 16, (2R,5S)-4-(3-chloro-4-cyanophenyl)-N-(2-chloro-6-methylpyridin-4-yl)-2,5-dimethylpiperazine-1-carboxamide], the half-inhibitory concentration (IC50) in assay [1] amounted to 0.045 µM; in assay [2], 0.024 µM.

For `COc1cc(N2C[C@@H](C)N(C(=O)Nc3cc(C)nc(C)n3)C[C@@H]2C)ccc1C#N` [Ex 7, (2R,5S)-4-(4-cyano-3-methoxyphenyl)-N-(2,6-dimethylpyrimidin-4-yl)-2,5-dimethylpiperazine-1-carboxamide], half-maximal inhibition in assay [1] (IC50) was put at 0.076 µM.
